Results from ChEMBL document CHEMBL1133027, “Novel inhibitors of HIV protease: design, synthesis and biological evaluation of picomolar inhibitors containing cyclic P1/P2 scaffolds” (Bioorg Med Chem Lett, 2000).

Key:
[1] = target: Human immunodeficiency virus type 1 protease (Human immunodeficiency virus 1, UniProt Q72874); experiment: Inhibition of HIV protease
[2] = tested on: MT4; experiment: Compound was evaluated for its antiviral inhibition in MT-4 cell culture; type: functional, cell-based; settings: Homo sapiens

Structure (SMILES)	Ki [1] [nM]	IC50 [2] [nM]
O=C(N[C@H]1c2ccccc2C[C@H]1O)[C@H](Cc1ccccc1)C[C@H](O)CN1C(=O)[C@H](Cc2ccccc2)C[C@@H]1Cc1ccccc1	> 0.5	
CC(C)c1nc(CN(C)C(=O)N[C@H](C(=O)N[C@@H](Cc2ccccc2)C[C@H](O)[C@H](Cc2ccccc2)NC(=O)OCc2cncs2)C(C)C)cs1 [RITONAVIR]		210
O=C(N[C@H]1c2ccccc2C[C@H]1O)[C@H](Cc1ccccc1)C[C@H](O)CN1C(=O)CC[C@@H]1Cc1ccccc1	330	> 50000
CC(C)CN(C[C@@H](O)[C@H](Cc1ccccc1)NC(=O)O[C@H]1CCOC1)S(=O)(=O)c1ccc(N)cc1		100
O=C(N[C@H]1c2ccccc2C[C@H]1O)[C@H](Cc1ccccc1)C[C@H](O)CN1C(=O)N(Cc2ccccc2)C[C@@H]1Cc1ccccc1	1.2	300
O=C(N[C@H]1c2ccccc2C[C@H]1O)[C@H](Cc1ccccc1)C[C@H](O)CN1C(=O)[C@@H](Cc2ccccc2)C[C@@H]1Cc1ccccc1	0.05	300
O=C(N[C@H]1c2ccccc2C[C@H]1O)[C@H](Cc1ccccc1)C[C@H](O)CN1[C@@H](Cc2ccccc2)C[C@H](Cc2ccccc2)S1(=O)=O	16	
O=C(N[C@H]1c2ccccc2C[C@H]1O)[C@H](Cc1ccccc1)C[C@@H](O)CN1C(=O)CC[C@@H]1Cc1ccccc1		> 50000
CC(C)(C)NC(=O)[C@@H]1C[C@@H]2CCCC[C@@H]2CN1C[C@@H](O)[C@H](Cc1ccccc1)NC(=O)[C@H](CC(N)=O)NC(=O)c1ccc2ccccc2n1		20
O=C(N[C@H]1c2ccccc2C[C@H]1O)[C@H](Cc1ccccc1)C[C@H](O)CN1[C@@H](Cc2ccccc2)CN(Cc2ccccc2)S1(=O)=O	0.8	1500
Cc1c(O)cccc1C(=O)N[C@@H](CSc1ccccc1)[C@H](O)CN1C[C@H]2CCCC[C@H]2C[C@H]1C(=O)NC(C)(C)C		50
O=C1N[C@H](Cc2ccccc2)C(=O)[C@H]1Cc1ccccc1	0.05	300
CC(C)(C)NC(=O)[C@@H]1CN(Cc2cccnc2)CCN1C[C@@H](O)C[C@@H](Cc1ccccc1)C(=O)N[C@H]1c2ccccc2C[C@H]1O		40
